Columns and labels:
Lipoprotein lipase (LPL) = molecular target: T1, Lipoprotein lipase (LPL) (Bos taurus, UniProt P11151); experiment: Lipoprotein lipase (LPL) inhibition assay, 3H-triolein/intralipid substrate; assay type: biochemical; conditions: read-out: LPL inhibition (% inh. at 50 μM)
T1 construct: Dr. Gunilla Olivecrona, Umea University (gift)
T1 sequence (P11151 29-478): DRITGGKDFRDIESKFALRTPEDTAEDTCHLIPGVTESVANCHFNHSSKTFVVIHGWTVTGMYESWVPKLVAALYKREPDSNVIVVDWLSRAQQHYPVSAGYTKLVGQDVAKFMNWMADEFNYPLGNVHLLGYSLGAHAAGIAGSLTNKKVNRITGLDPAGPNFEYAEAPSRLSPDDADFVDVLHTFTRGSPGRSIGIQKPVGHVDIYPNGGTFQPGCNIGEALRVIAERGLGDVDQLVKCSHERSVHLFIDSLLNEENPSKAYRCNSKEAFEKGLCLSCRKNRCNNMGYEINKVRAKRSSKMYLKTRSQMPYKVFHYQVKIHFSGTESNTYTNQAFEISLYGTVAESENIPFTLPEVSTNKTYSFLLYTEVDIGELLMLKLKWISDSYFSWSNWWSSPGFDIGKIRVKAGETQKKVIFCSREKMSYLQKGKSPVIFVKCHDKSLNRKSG
From the text: Lipoprotein Lipase (LPL) [Classified as EC 3.1.1.34 in accordance with the Recommendations of the Nomenclature Committee of the International Union of Biochemistry and Molecular Biology (available on the World Wide Web at the following address: http://www.chem.qmw.ac.uk/iubmb/enzyme/)]
Materials. The lipoprotein lipase employed was obtained from Dr. Gunilla Olivecrona of Umea University, Sweden. ^3H-triolein (TO) from Amersham, Buckinghamshire, U.K., cat No. TRA191; 5-20 Ci/mmol dissolved in toluene. Intralipid is from Kabi-Fresenius). Apo CII was obtained from PMSF-treated plasma from overnight fasted rats. All other reagents are of commercial grade and obtained from various commercial sources.
Methods. The preparation of the substrate is as follows:
25 μl of ^3H-Triolein evaporated under a gentle stream of N2 in a 27° C. room in 4 ml chromacol glass followed by the addition of 1 ml 10% intralipid. This is mixed and sonicated on ice for 5 minutes (50% pulse mode). This can be kept for 1 week at 4° C.
100 μl assay medium (0.3M Tris-Cl, 0.2M NaCl, 0.2 mg heparin/ml and 120 mg BSA/ml (fraction V, Sigma no. 3401, pH 8.5))
All mixed in a 13×100 mm glass tube and incubated for at least 5 minutes.
2. Add 5 μl LPL (of a solution containing 500 mU/mg)
Mix and incubate for 30 minutes at 25° C.
3. The reaction is stopped with 3.25 ml of a solution containing Methanol:chloroform:heptan 10:9:7. Add 1.05 ml buffer (100 mM Boric acid, 100 mM potassium carbonate pH 10.5) and mix 10 seconds per vial.
5. Take 1 ml of the upper phase+10 ml scintillation fluid and mix
6. Scintillation count for 5 minutes per vial.

Hepatic lipase (HL) = molecular target: T2, Hepatic lipase (HL) (Homo sapiens, UniProt P11150); experiment: Hepatic lipase (HL) inhibition assay, 3H-triolein substrate; assay type: biochemical; conditions: read-out: HL inhibition (% inh. at 50 μM)
T2 sequence (P11150 23-499): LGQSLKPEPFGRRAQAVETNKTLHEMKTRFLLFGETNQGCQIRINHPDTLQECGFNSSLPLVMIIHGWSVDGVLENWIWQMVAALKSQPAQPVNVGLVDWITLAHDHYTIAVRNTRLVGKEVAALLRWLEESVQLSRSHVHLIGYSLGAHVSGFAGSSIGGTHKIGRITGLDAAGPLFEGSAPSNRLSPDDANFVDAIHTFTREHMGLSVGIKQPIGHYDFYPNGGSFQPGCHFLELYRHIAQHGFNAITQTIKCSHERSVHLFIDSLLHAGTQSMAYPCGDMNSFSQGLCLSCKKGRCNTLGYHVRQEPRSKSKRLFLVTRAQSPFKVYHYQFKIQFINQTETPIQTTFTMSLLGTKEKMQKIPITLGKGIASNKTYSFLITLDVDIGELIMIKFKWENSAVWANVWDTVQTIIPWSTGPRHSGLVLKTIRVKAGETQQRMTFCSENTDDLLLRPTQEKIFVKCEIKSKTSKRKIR
From the text: Hepatic Lipase (HL) [classified as a triacylglycerol lipase, EC 3.1.1.3, in accordance with the Recommendations of the Nomenclature Committee of the International Union of Biochemistry and Molecular Biology (available on the World Wide Web at the following address: http://www.chem.qmw.ac.uk/iubmb/enzyme/)]
Materials. The hepatic lipase employed was obtained from Dr. Howard Wong of the University of California at Los Angeles (UCLA), USA, or produced and purified using the methods and a cell line provided by Dr. Wong's laboratory. ^3H-triolein (TO) from Amersham, Buckinghamshire, U.K., cat No. TRA191; 5-20 Ci/mmol dissolved in toluene and triolein (Sigma, Cat. No. T-1740). All other reagents are of commercial grade and obtained from various commercial sources.
50 μl TO in a 20 ml scintillation vial and evaporate with N2 for 5 minutes.
Add 1 ml 10% gum arabic and 1.25 ml Tris-Cl pH 8.5 and 2 ml MilliQ water.
Sonicate, on ice, 16 times for 30 seconds with a 30-second interval between cycles.
Add 2.5 ml of 5 M NaCl+2.5 ml BSA (10% in Milli Q, pH 8)+3.25 ml Milli Q
Total volume: 12.5 ml (for 80 reactions )
If an inhibitor is going to be used, it should be incubated with the 50 μl HL (of a 125 mU/ml solution) for 70 minutes at 25° C. A 5 μl aliquot from the incubated 50 μl is added to 150 μl assay mix+45 μl Milli Q™ water and mixed.
Incubate for exactly 30 minutes at 25° C.
Stop the reaction with Methanol:chloroform:heptane 10:9:7: 3.25 ml/vial, mix; then add 1.05 ml buffer (100 mM boric acid, 100 mM potassium carbonate pH 10.5), mix for 10 seconds per vial.
Centrifuge for 20 min/2000 rpm
Take 1 ml of the upper phase+10 ml scintillation fluid and mix by shaking by hand.
Scintillation count for 5 minutes per vial.

| SMILES | inhibition at 50 µM (Lipoprotein lipase (LPL)) | inhibition at 50 µM (Hepatic lipase (HL)) |
| --- | --- | --- |
| CC(C)(C)OC(=O)Nc1ccc(OC(=O)NN2CCc3ccccc3C2)cc1 [Example 17, (3,4-Dihydro-1H-isoquinolin-2-yl)-carbamic Acid 4-tert-butoxycarbonylamino-phenyl Ester] | 0% | 3% |
| O=C(NN1CCc2ccccc2C1)Oc1ccc(Cl)cc1 [Example 6, (3,4-Dihydro-1H-isoquinolin-2-yl)-carbamic acid 4-chloro-phenyl Ester] | 0% | 6% |
| CC1Cc2ccccc2CN1NC(=O)Oc1ccc(Cl)cc1 (stereo not drawn) [Example 23, (3-Methyl-3,4-dihydro-1H-isoquinolin-2-yl)-carbamic Acid 4-chloro-phenyl Ester] | 4% | 4% |

From patent US20020082254A1, “Compounds for treating disorders where a decreased level of plasma FFA is desired” (priority 2000, published 2002)
